This note sets out measurements from ChEMBL document CHEMBL4507319 (2021).

Test [1] has as its target Ribosomal protein S6 kinase alpha-4 (Homo sapiens) (UniProt O75676). As to conditions: Compound concentration 1000.0 nM.
Test [2] deals with Tyrosine-protein kinase ABL1 (Homo sapiens) (UniProt P00519). The experiment in a line: Abl(h) Eurofins kinase panel. The following applies: Compound concentration 1.0 uM.
Test [3] concerns the target T1, Aurora kinase A (Homo sapiens) (UniProt O14965).
T1 sequence (whole entry): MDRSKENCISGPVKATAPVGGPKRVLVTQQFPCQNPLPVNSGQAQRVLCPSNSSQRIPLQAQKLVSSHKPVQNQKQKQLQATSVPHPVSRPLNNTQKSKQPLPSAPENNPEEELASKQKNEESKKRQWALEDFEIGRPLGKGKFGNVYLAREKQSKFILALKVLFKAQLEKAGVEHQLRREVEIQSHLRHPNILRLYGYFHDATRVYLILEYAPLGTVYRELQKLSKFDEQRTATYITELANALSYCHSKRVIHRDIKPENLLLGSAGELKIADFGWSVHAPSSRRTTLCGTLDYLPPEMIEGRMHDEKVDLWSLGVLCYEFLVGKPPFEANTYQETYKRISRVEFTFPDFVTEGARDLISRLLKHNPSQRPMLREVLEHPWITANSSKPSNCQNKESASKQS
The experiment in a line: (§1) Aurora-A(h) Eurofins kinase panel. The following applies: Compound concentration 1.0 uM.

For test [4], the target named is Aurora kinase A (Homo sapiens, UniProt O14965). Described as §1.
Test [5] has as its target Calcium/calmodulin-dependent protein kinase type 1B (Homo sapiens) (UniProt Q6P2M8). Put plainly: CaMKIbeta(h) Eurofins kinase panel. As to conditions: Compound concentration 1.0 uM.
Test [6] addresses CDK7/Cyclin H/MNAT1 (Homo sapiens) (UniProt P51946+P50613+P51948). The experiment in a line: CDK7/cyclinH/MAT1(h) Eurofins kinase panel. Type of test: protein-complex assay. As to conditions: Compound concentration 1.0 uM.
In test [7] the target is Casein kinase II subunit alpha (Homo sapiens) (UniProt P68400). The experiment in a line: CK2alpha1(h) Eurofins kinase panel. As to conditions: Compound concentration 1.0 uM.
Test [8] concerns the target T2, Ephrin type-A receptor 8 (Homo sapiens) (UniProt P29322).
T2 sequence (whole entry): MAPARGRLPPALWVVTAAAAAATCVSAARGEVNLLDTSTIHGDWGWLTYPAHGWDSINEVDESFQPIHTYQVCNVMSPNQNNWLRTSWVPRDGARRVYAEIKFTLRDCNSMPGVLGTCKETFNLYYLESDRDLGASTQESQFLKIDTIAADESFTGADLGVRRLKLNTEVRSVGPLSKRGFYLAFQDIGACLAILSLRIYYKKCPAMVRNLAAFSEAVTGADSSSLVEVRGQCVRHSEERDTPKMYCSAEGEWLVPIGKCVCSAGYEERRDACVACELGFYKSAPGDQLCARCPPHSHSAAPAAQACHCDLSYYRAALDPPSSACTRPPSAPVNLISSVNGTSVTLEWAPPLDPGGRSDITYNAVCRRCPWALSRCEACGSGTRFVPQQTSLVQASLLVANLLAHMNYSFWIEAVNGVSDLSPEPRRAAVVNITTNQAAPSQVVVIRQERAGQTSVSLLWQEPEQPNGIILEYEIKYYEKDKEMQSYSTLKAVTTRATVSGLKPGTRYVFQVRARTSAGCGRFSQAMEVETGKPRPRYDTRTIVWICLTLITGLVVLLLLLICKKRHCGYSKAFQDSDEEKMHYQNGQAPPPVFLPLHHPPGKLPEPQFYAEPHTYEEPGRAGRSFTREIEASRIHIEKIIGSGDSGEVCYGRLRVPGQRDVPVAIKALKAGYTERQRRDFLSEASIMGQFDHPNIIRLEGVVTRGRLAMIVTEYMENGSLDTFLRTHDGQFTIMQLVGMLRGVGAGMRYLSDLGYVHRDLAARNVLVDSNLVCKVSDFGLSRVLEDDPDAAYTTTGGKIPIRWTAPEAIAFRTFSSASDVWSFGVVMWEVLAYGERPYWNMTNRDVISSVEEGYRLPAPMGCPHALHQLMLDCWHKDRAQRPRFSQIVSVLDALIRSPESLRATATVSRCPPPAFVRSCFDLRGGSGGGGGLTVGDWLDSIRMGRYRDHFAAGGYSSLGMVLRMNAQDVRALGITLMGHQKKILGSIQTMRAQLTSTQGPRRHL
The experiment in a line: EphA8(h) Eurofins kinase panel. The following applies: Compound concentration 1.0 uM.

Test [9] concerns the target Focal adhesion kinase 1 (Homo sapiens) (UniProt Q05397). Put plainly: FAK(h) Eurofins kinase panel. The following applies: Compound concentration 1.0 uM.
The target of test [10] is Tyrosine-protein kinase Lck (Homo sapiens) (UniProt P06239). The experiment in a line: Lck(h) activated Eurofins kinase panel. The following applies: Compound concentration 1.0 uM.
Test [11] concerns the target Serine/threonine-protein kinase 26 (Homo sapiens) (UniProt Q9P289). Put plainly: MST4(h) Eurofins kinase panel. As to conditions: Compound concentration 1.0 uM.
Test [12] addresses Platelet-derived growth factor receptor alpha (Homo sapiens) (UniProt P16234). Put plainly: PDGFRalpha(h) Eurofins kinase panel. The following applies: Compound concentration 1.0 uM.
Test [13] addresses RAC-alpha serine/threonine-protein kinase (Homo sapiens) (UniProt P31749). The experiment in a line: PKBalpha (h) Eurofins kinase panel. The following applies: Compound concentration 1.0 uM.
Test [14] deals with Protein kinase C gamma type (Homo sapiens) (UniProt P05129). Put plainly: PKCgamma(h) Eurofins kinase panel. The following applies: Compound concentration 1.0 uM.
In test [15] the target is Macrophage-stimulating protein receptor (Homo sapiens) (UniProt Q04912). Put plainly: Ron(h) Eurofins kinase panel. As to conditions: Compound concentration 1.0 uM.
Test [16] concerns the target Proto-oncogene tyrosine-protein kinase ROS (Homo sapiens) (UniProt P08922). The experiment in a line: Ros(h) Eurofins kinase panel. As to conditions: Compound concentration 1.0 uM.
For test [17], the target named is Serine/threonine-protein kinase SIK3 (Homo sapiens) (UniProt Q9Y2K2). The experiment in a line: SIK3(h) Eurofins kinase panel. The following applies: Compound concentration 1.0 uM.
The target in test [18] is STE20-like serine/threonine-protein kinase (Homo sapiens) (UniProt Q9H2G2). Put plainly: SLK(h) Eurofins kinase panel. As to conditions: Compound concentration 1.0 uM.
In test [19] the target is Serine/threonine-protein kinase tousled-like 2 (Homo sapiens) (UniProt Q86UE8). The experiment in a line: TLK2(h) Eurofins kinase panel. The following applies: Compound concentration 1.0 uM.
In test [20] the target is DNA-dependent protein kinase catalytic subunit (Homo sapiens) (UniProt P78527). Put plainly: DNA-PK(h) Eurofins kinase panel. The following applies: Compound concentration 1.0 uM.
The test system of test [21] is COLO 201. Put plainly: COLO 201, control cell line Proliferation assay. Type of test: functional, Homo sapiens. As to conditions: time 3 day.
The test system of test [22] is NCI-H292. Put plainly: NCI- H292 cell line Proliferation assay. Type of test: functional, Homo sapiens. The following applies: time 3 day.
Test [23] relates to SNU-16. The experiment in a line: Snu16 cell line Proliferation assay. Type of test: functional, Homo sapiens. As to conditions: time 3 day.
Test [24] concerns DU-145. The experiment in a line: DU-145 cell line Proliferation assay. As to conditions: time 6 day. Type of test: functional, Homo sapiens.
The target of test [25] is Ribosomal protein S6 kinase alpha-5 (Homo sapiens, UniProt O75582).
Test [26] concerns the target Ribosomal protein S6 kinase alpha-3 (Homo sapiens, UniProt P51812).
For test [27], the target named is Ribosomal protein S6 kinase alpha-2 (Homo sapiens, UniProt Q15349).
Test [28] has as its target D(1A) dopamine receptor (Homo sapiens) (UniProt P21728). As to conditions: Compound concentration 10.0 uM.

The term residual activity denotes the activity still measured, relative to the control. In general, IC50 refers to the midpoint of a concentration-inhibition curve. What is called inhibition is the relative decrease from the control value, in per cent.

Where only a bound is given, the exact number is not on record here.

Focal adhesion kinase 1 (Homo sapiens), sequence (Q05397 2-1052 limits assumed): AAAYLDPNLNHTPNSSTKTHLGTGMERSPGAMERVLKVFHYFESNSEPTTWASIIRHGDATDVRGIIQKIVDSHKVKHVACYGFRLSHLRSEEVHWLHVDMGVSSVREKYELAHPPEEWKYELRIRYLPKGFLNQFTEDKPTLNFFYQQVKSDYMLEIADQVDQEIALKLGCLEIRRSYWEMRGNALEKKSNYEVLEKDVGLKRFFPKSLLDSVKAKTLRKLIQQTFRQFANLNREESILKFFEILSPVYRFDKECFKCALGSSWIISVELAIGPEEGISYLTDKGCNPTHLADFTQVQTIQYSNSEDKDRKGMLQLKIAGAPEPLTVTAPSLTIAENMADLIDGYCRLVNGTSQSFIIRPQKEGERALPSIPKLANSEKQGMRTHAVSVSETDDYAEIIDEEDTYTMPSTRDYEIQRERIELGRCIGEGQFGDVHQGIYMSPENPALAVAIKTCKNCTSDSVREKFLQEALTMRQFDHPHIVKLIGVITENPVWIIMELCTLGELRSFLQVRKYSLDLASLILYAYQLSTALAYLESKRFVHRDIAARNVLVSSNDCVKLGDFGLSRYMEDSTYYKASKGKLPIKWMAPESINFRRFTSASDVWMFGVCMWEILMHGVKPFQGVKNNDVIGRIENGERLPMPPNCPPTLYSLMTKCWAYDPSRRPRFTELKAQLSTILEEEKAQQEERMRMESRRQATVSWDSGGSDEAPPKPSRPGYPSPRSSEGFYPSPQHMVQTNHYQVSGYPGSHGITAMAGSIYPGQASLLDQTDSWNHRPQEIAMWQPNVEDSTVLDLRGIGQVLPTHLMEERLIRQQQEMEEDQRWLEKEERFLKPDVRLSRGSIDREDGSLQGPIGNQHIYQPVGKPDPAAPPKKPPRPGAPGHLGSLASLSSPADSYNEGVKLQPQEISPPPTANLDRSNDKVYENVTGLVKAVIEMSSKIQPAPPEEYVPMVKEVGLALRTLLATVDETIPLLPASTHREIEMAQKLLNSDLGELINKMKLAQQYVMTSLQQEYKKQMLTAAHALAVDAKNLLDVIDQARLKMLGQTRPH
Serine/threonine-protein kinase tousled-like 2 (Homo sapiens), sequence (Q86UE8 whole entry, looked up): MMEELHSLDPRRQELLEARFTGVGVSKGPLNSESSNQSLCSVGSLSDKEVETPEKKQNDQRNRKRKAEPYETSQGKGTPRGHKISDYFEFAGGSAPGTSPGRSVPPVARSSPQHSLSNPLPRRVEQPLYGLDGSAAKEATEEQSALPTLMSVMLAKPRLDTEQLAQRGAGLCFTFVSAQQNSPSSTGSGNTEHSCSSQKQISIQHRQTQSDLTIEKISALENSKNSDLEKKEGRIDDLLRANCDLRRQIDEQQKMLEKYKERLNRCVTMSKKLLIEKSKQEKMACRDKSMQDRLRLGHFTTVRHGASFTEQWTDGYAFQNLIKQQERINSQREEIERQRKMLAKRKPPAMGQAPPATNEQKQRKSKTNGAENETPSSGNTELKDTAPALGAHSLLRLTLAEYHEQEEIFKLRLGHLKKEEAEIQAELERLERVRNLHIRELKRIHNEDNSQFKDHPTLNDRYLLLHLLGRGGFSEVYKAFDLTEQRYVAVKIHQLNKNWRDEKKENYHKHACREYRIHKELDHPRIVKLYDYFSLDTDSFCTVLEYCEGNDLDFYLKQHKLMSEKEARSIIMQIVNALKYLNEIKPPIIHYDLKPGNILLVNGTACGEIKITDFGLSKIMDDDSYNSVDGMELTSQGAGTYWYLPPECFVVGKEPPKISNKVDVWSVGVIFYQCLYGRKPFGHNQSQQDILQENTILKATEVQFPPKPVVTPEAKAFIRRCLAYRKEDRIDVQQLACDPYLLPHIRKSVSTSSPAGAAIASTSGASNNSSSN
RAC-alpha serine/threonine-protein kinase (Homo sapiens), sequence (P31749 whole entry): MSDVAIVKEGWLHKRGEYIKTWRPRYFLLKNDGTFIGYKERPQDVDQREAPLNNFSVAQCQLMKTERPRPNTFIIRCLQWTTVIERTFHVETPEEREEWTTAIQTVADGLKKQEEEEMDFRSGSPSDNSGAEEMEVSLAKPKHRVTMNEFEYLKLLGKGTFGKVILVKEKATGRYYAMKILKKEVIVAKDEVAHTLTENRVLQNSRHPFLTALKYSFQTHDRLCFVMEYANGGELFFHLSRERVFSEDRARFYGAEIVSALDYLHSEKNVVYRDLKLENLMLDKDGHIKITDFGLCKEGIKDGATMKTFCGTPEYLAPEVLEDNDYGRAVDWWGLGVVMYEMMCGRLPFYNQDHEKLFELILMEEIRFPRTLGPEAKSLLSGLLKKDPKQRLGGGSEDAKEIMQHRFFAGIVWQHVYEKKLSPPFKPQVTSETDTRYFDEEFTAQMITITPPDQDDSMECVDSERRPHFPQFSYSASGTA
Ribosomal protein S6 kinase alpha-2, sequence (Q15349 whole entry): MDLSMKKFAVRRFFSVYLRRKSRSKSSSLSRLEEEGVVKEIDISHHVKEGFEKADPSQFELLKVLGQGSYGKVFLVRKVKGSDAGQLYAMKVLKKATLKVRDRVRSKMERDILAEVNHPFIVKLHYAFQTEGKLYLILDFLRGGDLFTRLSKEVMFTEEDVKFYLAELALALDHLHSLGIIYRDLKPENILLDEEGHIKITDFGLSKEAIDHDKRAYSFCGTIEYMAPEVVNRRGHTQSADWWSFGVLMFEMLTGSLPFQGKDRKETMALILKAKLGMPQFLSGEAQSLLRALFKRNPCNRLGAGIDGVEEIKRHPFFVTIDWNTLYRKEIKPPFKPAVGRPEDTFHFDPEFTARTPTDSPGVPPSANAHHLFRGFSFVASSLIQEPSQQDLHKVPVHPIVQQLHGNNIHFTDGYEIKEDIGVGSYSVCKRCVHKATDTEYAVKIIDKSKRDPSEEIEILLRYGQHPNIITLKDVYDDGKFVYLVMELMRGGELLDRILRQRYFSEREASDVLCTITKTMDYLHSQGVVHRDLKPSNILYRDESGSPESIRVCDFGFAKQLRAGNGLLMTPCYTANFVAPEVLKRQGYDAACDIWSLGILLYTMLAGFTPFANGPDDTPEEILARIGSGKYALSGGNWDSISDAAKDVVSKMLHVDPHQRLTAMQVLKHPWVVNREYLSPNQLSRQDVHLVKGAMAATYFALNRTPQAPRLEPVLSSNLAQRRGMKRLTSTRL
Tyrosine-protein kinase ABL1 (Homo sapiens), sequence (P00519 whole entry): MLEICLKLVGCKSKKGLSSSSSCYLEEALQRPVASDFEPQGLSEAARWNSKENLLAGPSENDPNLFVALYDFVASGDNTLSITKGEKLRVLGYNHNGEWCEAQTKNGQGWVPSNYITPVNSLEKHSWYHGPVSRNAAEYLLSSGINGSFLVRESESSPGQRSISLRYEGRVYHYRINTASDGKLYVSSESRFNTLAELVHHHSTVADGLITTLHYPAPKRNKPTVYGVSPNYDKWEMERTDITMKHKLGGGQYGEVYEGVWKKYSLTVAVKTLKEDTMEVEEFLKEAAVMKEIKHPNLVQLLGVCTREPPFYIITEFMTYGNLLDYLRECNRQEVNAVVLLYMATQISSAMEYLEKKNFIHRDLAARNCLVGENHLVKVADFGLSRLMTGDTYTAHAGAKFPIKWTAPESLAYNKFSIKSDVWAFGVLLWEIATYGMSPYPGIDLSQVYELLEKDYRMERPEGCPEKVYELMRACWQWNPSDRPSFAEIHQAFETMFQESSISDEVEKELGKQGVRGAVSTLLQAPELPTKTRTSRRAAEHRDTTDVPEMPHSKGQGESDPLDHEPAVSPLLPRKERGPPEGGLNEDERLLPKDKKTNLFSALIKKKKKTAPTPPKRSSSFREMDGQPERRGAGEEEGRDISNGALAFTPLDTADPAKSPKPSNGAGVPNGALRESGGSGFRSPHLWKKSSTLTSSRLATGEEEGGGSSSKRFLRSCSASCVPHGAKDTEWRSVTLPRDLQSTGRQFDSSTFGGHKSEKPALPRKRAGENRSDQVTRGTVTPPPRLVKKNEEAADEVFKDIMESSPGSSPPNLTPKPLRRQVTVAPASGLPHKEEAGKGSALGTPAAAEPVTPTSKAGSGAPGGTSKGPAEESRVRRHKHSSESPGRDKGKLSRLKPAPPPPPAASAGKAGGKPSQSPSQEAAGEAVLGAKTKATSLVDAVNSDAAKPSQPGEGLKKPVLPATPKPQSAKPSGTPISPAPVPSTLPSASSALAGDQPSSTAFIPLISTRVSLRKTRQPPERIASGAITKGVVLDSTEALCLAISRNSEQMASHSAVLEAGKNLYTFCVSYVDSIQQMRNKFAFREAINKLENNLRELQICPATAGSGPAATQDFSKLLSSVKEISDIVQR
Serine/threonine-protein kinase 26 (Homo sapiens), sequence (Q9P289 2-416 limits assumed): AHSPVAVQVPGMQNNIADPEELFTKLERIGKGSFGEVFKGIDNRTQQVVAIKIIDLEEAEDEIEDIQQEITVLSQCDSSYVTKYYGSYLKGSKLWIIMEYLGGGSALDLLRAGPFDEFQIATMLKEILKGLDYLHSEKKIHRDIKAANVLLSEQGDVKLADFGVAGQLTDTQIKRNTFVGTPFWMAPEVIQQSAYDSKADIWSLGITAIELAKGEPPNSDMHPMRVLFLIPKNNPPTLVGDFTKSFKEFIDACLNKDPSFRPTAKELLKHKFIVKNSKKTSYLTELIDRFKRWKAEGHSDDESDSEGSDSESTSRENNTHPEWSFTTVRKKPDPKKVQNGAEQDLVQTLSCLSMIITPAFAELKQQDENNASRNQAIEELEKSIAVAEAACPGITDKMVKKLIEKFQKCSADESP
D(1A) dopamine receptor (Homo sapiens), sequence (P21728 whole entry): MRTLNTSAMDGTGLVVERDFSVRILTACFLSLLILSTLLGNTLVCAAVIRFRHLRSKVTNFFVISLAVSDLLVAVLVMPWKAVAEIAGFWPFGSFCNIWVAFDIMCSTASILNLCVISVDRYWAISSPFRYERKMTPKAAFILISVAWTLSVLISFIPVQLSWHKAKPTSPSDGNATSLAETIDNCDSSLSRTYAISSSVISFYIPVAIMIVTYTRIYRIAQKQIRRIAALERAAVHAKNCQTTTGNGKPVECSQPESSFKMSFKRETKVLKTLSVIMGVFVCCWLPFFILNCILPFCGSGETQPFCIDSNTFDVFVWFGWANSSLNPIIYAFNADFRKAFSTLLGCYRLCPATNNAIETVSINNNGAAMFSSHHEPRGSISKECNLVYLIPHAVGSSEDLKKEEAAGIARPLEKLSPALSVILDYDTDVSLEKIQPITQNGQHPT

For the molecule `CC1=C(C#N)C(c2ccc3c(c2)c(NC(=O)c2ccccc2C)nn3C)C(C#N)=C(C)N1` [BAY-974], the residual activity in [1] is 100%.
For `CCc1ccccc1C(=O)Nc1n[nH]c2c(C)c(F)c(C3C(C#N)=C(C)N(C)C(C)=C3C#N)cc12` [BAY-3827], the % residual kinase activity in [2] is 131%; in test [3] it was 34%; in [5], 91%; in test [6] it was 66%; in test [7], 93%; in test [8], 102%. For the same molecule, the % residual kinase activity in test [9] is 84%; in test [10], 108%; in test [11], 84%; in [12], 102%; in [13] it was 91%; in [14], 47%. In addition, the % residual kinase activity in test [15] is 102%; in test [16] it was 100%; in test [17], 84%; in [18], 101%; in test [19], 96%; in test [20], 94%. Besides, the half-inhibitory concentration (IC50) in [4] amounted to 480 nM; in test [25] it was 43 nM; in test [26], 52 nM; in test [27] it was 24 nM. Besides, the “Cell Proliferation IC50” value in test [21] is 16000 nM; in test [22], 17100 nM; in test [23] it was 11600 nM; in [24], >10000 nM. Further, the inhibition in test [28] is 67.4%.
